ChEMBL document CHEMBL1131629, “4-Benzylamino-1-chloro-6-substituted phthalazines: synthesis and inhibitory activity toward phosphodiesterase 5” (J Med Chem, 1998)

Species: Sus scrofa
Experiment: Vasorelaxation effect in porcine coronary arteries precontracted with PGF2-alpha
Type: functional

EC50 [nM]	Compound
980	O=C(O)C1CCN(c2nc(NCc3ccc4c(c3)OCO4)c3cc(Cl)ccc3n2)CC1
160	COc1ccc(CNc2nnc(Cl)c3ccc([N+](=O)[O-])cc23)cc1Cl
150	COc1ccc(CNc2nnc(Cl)c3ccc(C#N)cc23)cc1Cl
